Values quoted from earlier work, collected in patent publication US9265724B2, “Oral dosage form of tetrahydrocannabinol and a method of avoiding and/or suppressing hepatic first pass metabolism via targeted chylomicron/lipoprotein delivery” (priority 2005, dated 2016).

Key:
[1] = low aqueous solubility and high permeability

CCCCCc1cc(O)c2c(c1)OC(C)(C)[C@@H]1CCC(C)=C[C@@H]21 [Δ^9-THC, Δ^9-tetrahydrocannabinol]
biopharmaceutical classification system (BCS) class [1]: Class II
absorbed (after a single oral dose): 90-95%
continuation of appetite stimulant effect (after administration): ≥ 24 h
duration of action for psychoactive effects (after oral administration): 4 to 6 h
peak effect (after oral administration): 2 to 4 h
administered dose that reaches systemic circulation (oral): 10-20%
maximal plasma levels (oral dosing of 20 mg in a sesame oil formulation): around 10 ng/ml
